# Measured values: US8865909B2, “Anti-biofilm agents” (Yissum Research Development Company of the Hebrew …, priority 2008, dated 2014)
# Columns and labels:
# Vero cells [1] = test: Vero cells detachment assay (96-well polystyrene plate, XTT); assay type: cell-based
# Description: Vero cells (0.1 ml, 1.6×10^6 cells/ml) were plated in each well of flat 96-wells polystyrene plate (Nunc), and incubated overnight at 37° C. and 5% CO2. The cells were then incubated with various concentrations of the exemplary tested ABF agent TZD10. At the indicated time intervals, the cells were washed and re-suspended in fresh medium. XTT (2,3-bis-(2-methoxy-4-nitro-5-sulfophenyl)-2H-tetrazolium-5-carboxanilide) analysis was performed to determine the viability of the attached cells.
# V. harveyi biofilm = test: Quorum sensing (luminescence) in mature biofilm; assay type: cell-based; design: reduction of QS: dose or concentration left out as unconfirmed; details: for reduction of QSI: maximal tested concentration
# Description: The working protocol for the biofilm disruption assays were conducted as follows. The tested V. harveyi strains (BB120, BB721, BB170, BB886) were grown to cell density of 1.5-2.5×10^9 CFU/ml (15-16 hrs) in AB medium at 30° C. with constant shaking and the suspension was diluted (1:5,000) in fresh AB medium. Aliquot of the suspension (200 μl) was added to each well in a white 96-well plate (NUNC) and incubated for 18 hours at 30° C. without shaking. The formed biofilm was carefully washed twice with saline. Fresh AB medium containing the exemplary ABF agent at the various tested concentrations, and either 10% (v/v) spent medium of V. harveyi MM30 (containing AI-1) or 10% (v/v) spent medium of V. harveyi BB152 (containing AI-2) were added, for further 18 hours of incubation as described above. Each sample was also tested without the spent medium as control to examine self induction. Positive and negative controls were included as described above. Each sample was tested in three separate biological experiments in triplicate samples. Luminescence was calculated as the AUC using the trapezoid rule.
# Vero cells [2] = test: Vero cells detachment from T-flasks; assay type: cell-based; details: 100 μg/ml TZD10 + 1.34 mM EDTA in PBS, 40 minutes
# Description: Vero cells were grown on for 6 days in T-flask with DMEM+10% FCS+Hepes+Glutamine+Pen-strep (Beit HaEmek). The cells were then washed with PBS and incubated for 40 minutes with 100 μg/ml TZD10+1.34 mM (about 0.5 mg/ml) EDTA in PBS without calcium and magnesium (Beit HaEmek).
# V. harveyi strains = test: MIC, broth dilution antibacterial susceptibility test; assay type: cell-based
# Description: A series of V. harveyi strains (wild-type and mutants), marine bacteria which are used as a widely accepted model for testing quorum sensing, was used in the experiments below.
# MIC was determined according to the CLSI, formerly NCCLS (National Committee for Clinical Laboratory Standards) recommendation for broth dilution antibacterial susceptibility test.
# All the tested V. harveyi strains (adjusted to 0.5 MacFarlane standard suspension) were grown at 30° C., in the presence of the tested agent at concentrations ranging from 2 μM to 10 mM, in 96-well transparent micro-titration plates (NUNC, Denmark).
# After 18 hours of incubation, bacterial growth was determined according to the density measured by absorbance at 595 nm (GENios reader TECAN-Austria).
# Each experiment was conducted in triplicate samples and repeated three times. Based on MIC results, the exemplary anti-biofilm forming agent with the highest MIC values (lowest antibacterial activity) was selected for the anti-quorum sensing activity screening assay.
# [3] = test system: V. harveyi wild-type strain (BB120) matured biofilms; test: Biofilm disruption by confocal scanning laser microscopy; assay type: cell-based; details: 2, 20, 200 μM (lower than MIC), 18 hours
# Description: The biofilm eradication concentration (BEC) for exemplary ABF agents according to embodiments of the present invention was measured as the effect of the tested agent on mature and fully formed biofilm. The effect of TZD10, an exemplary ABF agent according to embodiments of the present invention, on the depth and the density of the biofilm was determined using fluorescent stains analyzed by computer image analysis using confocal scanning laser microscopy (CLSM). Briefly, biofilms were allowed to form in sterile micrtiture dishes as described hereinabove. After washing the formed biofilm, fresh AB medium and an appropriate medium containing TZD10 were added and incubated for additional 18 hours. Bacteria in biofilm were stained with fluorescent dyes to detect the biofilm. The stained biofilms were examined with a Zeiss LSM 410 confocal laser scanning system attached to a Zeiss Axiovert inverted microscope fitted with a 40×/1.3 Plan-Neofluar lens. In each experiment, exciting laser intensity, background level, contrast and electronic zoom size were maintained at the same level. At least 3 random fields for each experiment were chosen and scored from each sample. Biofilm structure was analyzed as a series of horizontal opto-digital sections. […]
# MDCK cells [4] = test: MDCK cells viability assay (XTT); assay type: cell-based, canine; details: 40 minutes + 120 minutes with XTT
# Description: (§1) Madine-Derby canine kidney cells (MDCK) are a non-cancerous, polarized epithelial cell line, used in the research of cell polarity mechanisms, and in the research of pathogen interactions with epithelial tissues. These cells produce monolayers in which cells are polarized and tightly connected to each other. The cells were treated with TZD10 for 40 minutes without the XTT reagents that were then added for further 120 minutes incubation. The influence of TZD10 on the attachment of MDCK cells was investigated using an identical method used for the Vero cells (the 96 well polystyrene plate method) as presented hereinabove.
# MDCK cells [5] = test: MDCK cells detachment assay; assay type: cell-based, canine
# Description: as §1
# Vero cells [6] = test: Vero cell viability assay (XTT); assay type: cell-based; details: 160 minutes
# Description: The effect of TZD10 on the viability of Vero cells was detected by incubating the cells for 40 minutes with TZD10, and further incubation for 120 minutes with the XTT reagents in the same medium without washings, so that the total incubation time with TZD10 was 160 minutes. The cells were treated with TZD10 for 40 minutes without the XTT reagents that were then added for further 120 minutes incubation.
smiles,measurement,setting,value
"CCCCCCCCC/C=C1\SC(=O)NC1=O [TZD10, (Z)-5-decylidenethiazolidine-2,4-dione]",cell viability after detachment assay,"Vero cells [1]; 50 μg/ml, overnight incubation",most of the cells are still viable
same,cell detachment,"Vero cells [1]; 100 μg/ml, 30 minutes",most of the cells were detached
same,cell detachment,"Vero cells [1]; 200 μg/ml, 5 minutes",most of the cells were detached
same,reduction of QSI activity,"V. harveyi biofilm; AI-1 spent medium, 0.200 μM, BB886",39%
same,reduction of QSI activity,"V. harveyi biofilm; AI-1 spent medium, 0.200 μM, wild-type",62%
same,reduction of QS activity,"V. harveyi biofilm; AI-1 spent medium, 2 μM, BB886",10%
same,reduction of QS activity,"V. harveyi biofilm; AI-1 spent medium, 2 μM, wild type BB120",18%
same,change in QSI,"V. harveyi biofilm; AI-2 spent medium, 2 μM, BB170",minor increase
same,reduction of QSI activity,"V. harveyi biofilm; AI-2 spent medium, 2 μM, BB721 (LuxO null)",25%
same,change in QSI,"V. harveyi biofilm; AI-2 spent medium, 2 μM, wild-type BB120",minor increase
same,reduction of QSI,"V. harveyi biofilm; AI-2 spent medium, BB170",44%
same,reduction of QSI,"V. harveyi biofilm; AI-2 spent medium, BB721",72%
same,reduction of QSI,"V. harveyi biofilm; AI-2 spent medium, wild-type",35%
same,QS inhibition versus concentration,"V. harveyi biofilm; all tested strains, mature biofilm",positive dose response
same,effect on QS,"V. harveyi biofilm; no AI-1 nor AI-2, BB170, 2 μM",no effect
same,reduction of QS,"V. harveyi biofilm; no AI-1 nor AI-2, BB170, highest tested concentration",62%
same,reduction of QSI activity,"V. harveyi biofilm; no AI-1 nor AI-2, BB721, 2 μM",38%
same,reduction of QSI activity,"V. harveyi biofilm; no AI-1 nor AI-2, BB721, 20 μM",63%
same,reduction of QSI activity,"V. harveyi biofilm; no AI-1 nor AI-2, BB721, 200 μM",79%
same,reduction of QSI activity,"V. harveyi biofilm; no AI-1 nor AI-2, BB886, 2 μM",30%
same,reduction of QSI activity,"V. harveyi biofilm; no AI-1 nor AI-2, BB886, 200 μM",40%
same,cell release from T-flask,Vero cells [2],could be released from the flask by pipettetion
same,antibacterial activity,V. harveyi strains; V. harveyi mutants and wild-type,lack of antibacterial activity per se
same,MIC,V. harveyi strains; Vibrio harveyi,< 10 mM
same,MIC,V. harveyi strains; strain BB120 (wild-type),<10 mM
same,MIC,"V. harveyi strains; strain BB170 (sensor 1-, sensor 2+)",<10 mM
same,MIC,V. harveyi strains; strain BB721 (LuxO null),<10 mM
same,MIC,"V. harveyi strains; strain BB886 (sensor 1+, sensor 2-)",<10 mM
same,biofilm disruption,[3],dose response effect of biofilm disruption
same,toxicity compared with Vero cells,MDCK cells [4],more toxic to MDCK cells than to Vero cells
same,cell detachment from the polystyrene dish,MDCK cells [5],detached
same,time of detachment compared with Vero cells,MDCK cells [5],observed sooner than it has been observed with Vero cells
same,toxicity to Vero cells,Vero cells [6]; 125 μg/ml and above,partially cytotoxic
same,toxicity to Vero cells,Vero cells [6]; up to 100 μg/ml,not toxic
